Laboratory results taken from PubChem BioAssay (NCI).
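Values below derive from 48-hour exposures of cells grown in 96-well plates, with endpoints linearly interpolated between the two concentrations bracketing the appropriate inhibition level. GI50 is the concentration that inhibits growth by half. TGI: total growth inhibition.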

Experiments:
Assay in all cases: inhibition of tumour cell growth, NCI panel, 48 h
MDA-MB-231 breast = test system: MDA-MB-231 breast
NCI-H23 lung = test system: NCI-H23 lung
NCI/ADR-RES ovarian = test system: NCI/ADR-RES ovarian
OVCAR-5 ovarian = test system: OVCAR-5 ovarian
SF-268 CNS = test system: SF-268 CNS
OVCAR-4 ovarian = test system: OVCAR-4 ovarian
UACC-257 melanoma = test system: UACC-257 melanoma
KM12 colon = test system: KM12 colon
SK-MEL-2 melanoma = test system: SK-MEL-2 melanoma
HOP-62 NSCLC = test system: HOP-62 NSCLC
NCI-H460 lung = test system: NCI-H460 lung
ACHN renal = test system: ACHN renal
LOX IMVI melanoma = test system: LOX IMVI melanoma
DU-145 prostate = test system: DU-145 prostate
SW-620 colon = test system: SW-620 colon
SK-OV-3 ovarian = test system: SK-OV-3 ovarian
786-0 renal = test system: 786-0 renal
SK-MEL-28 melanoma = test system: SK-MEL-28 melanoma
MCF7 breast = test system: MCF7 breast
HS 578T breast = test system: HS 578T breast
IGROV1 ovarian = test system: IGROV1 ovarian
OVCAR-8 ovarian = test system: OVCAR-8 ovarian
MALME-3M melanoma = test system: MALME-3M melanoma
M14 melanoma = test system: M14 melanoma
MDA-MB-435 = test system: MDA-MB-435
HCT-116 colon = test system: HCT-116 colon
BT-549 breast = test system: BT-549 breast
SNB-75 CNS = test system: SNB-75 CNS
MOLT-4 leukemia = test system: MOLT-4 leukemia
TK-10 renal = test system: TK-10 renal
COLO 205 colon = test system: COLO 205 colon
K-562 leukemia = test system: K-562 leukemia
RPMI-8226 leukemia = test system: RPMI-8226 leukemia
SF-295 CNS = test system: SF-295 CNS
U251 CNS = test system: U251 CNS
HCT-15 colon = test system: HCT-15 colon
SNB-19 CNS = test system: SNB-19 CNS
OVCAR-3 ovarian = test system: OVCAR-3 ovarian
HOP-92 NSCLC = test system: HOP-92 NSCLC
T-47D breast = test system: T-47D breast
NCI-H522 lung = test system: NCI-H522 lung
CCRF-CEM leukemia = test system: CCRF-CEM leukemia
CAKI-1 renal = test system: CAKI-1 renal
A549 NSCLC = test system: A549 NSCLC
RXF 393 renal = test system: RXF 393 renal
HL-60(TB) leukemia = test system: HL-60(TB) leukemia
SN12C renal = test system: SN12C renal
A498 renal = test system: A498 renal
UO-31 renal = test system: UO-31 renal
SK-MEL-5 melanoma = test system: SK-MEL-5 melanoma
PC-3 prostate = test system: PC-3 prostate
NCI-H226 lung = test system: NCI-H226 lung
EKVX NSCLC = test system: EKVX NSCLC
SR leukemia = test system: SR leukemia
SF-539 CNS = test system: SF-539 CNS
HCC-2998 colon = test system: HCC-2998 colon
UACC-62 melanoma = test system: UACC-62 melanoma
HT29 colon = test system: HT29 colon

## COc1ccc2c(c1)/C(=C\c1cccnc1)C(=O)N2
MDA-MB-231 breast
  GI50: 16.3 µM
  TGI: 35.5 µM
NCI-H23 lung
  GI50: 16.6 µM
  TGI: 35 µM
NCI/ADR-RES ovarian
  GI50: 25.4 µM
  TGI: 70.1 µM
OVCAR-5 ovarian
  GI50: 24.3 µM
  TGI: 78.5 µM
SF-268 CNS
  GI50: 12.9 µM
  TGI: 37 µM
OVCAR-4 ovarian
  GI50: 38.2 µM
  TGI: > 100 µM
UACC-257 melanoma
  GI50: 14.8 µM
  TGI: 31.8 µM
KM12 colon
  GI50: 19.7 µM
  TGI: 57.8 µM
SK-MEL-2 melanoma
  GI50: 42.3 µM
  TGI: > 100 µM
HOP-62 NSCLC
  GI50: 23 µM
  TGI: 60.3 µM
NCI-H460 lung
  GI50: 19.2 µM
  TGI: 62.4 µM
ACHN renal
  GI50: 18.5 µM
  TGI: 38.9 µM
LOX IMVI melanoma
  GI50: 8.83 µM
  TGI: 25.3 µM
DU-145 prostate
  GI50: 2.52 µM
  TGI: 21.3 µM
SW-620 colon
  GI50: 41 µM
  TGI: > 100 µM
SK-OV-3 ovarian
  GI50: 20.3 µM
  TGI: 46.5 µM
786-0 renal
  GI50: 18.3 µM
  TGI: 45.7 µM
SK-MEL-28 melanoma
  GI50: 23.4 µM
  TGI: 64.7 µM
MCF7 breast
  GI50: 10.9 µM
  TGI: 53.4 µM
HS 578T breast
  GI50: 31.1 µM
  TGI: 94.7 µM
IGROV1 ovarian
  GI50: 32.2 µM
  TGI: > 100 µM
OVCAR-8 ovarian
  GI50: 11.8 µM
  TGI: 43.6 µM
MALME-3M melanoma
  GI50: 21 µM
  TGI: 47.9 µM
M14 melanoma
  GI50: 31 µM
  TGI: 83.8 µM
MDA-MB-435
  GI50: 35.9 µM
  TGI: > 100 µM
HCT-116 colon
  GI50: 9.72 µM
  TGI: > 100 µM
BT-549 breast
  GI50: 13.3 µM
  TGI: 32.3 µM
SNB-75 CNS
  GI50: 27.9 µM
  TGI: 68.1 µM
MOLT-4 leukemia
  GI50: 23 µM
  TGI: > 100 µM
TK-10 renal
  GI50: 18.5 µM
  TGI: 44.6 µM
COLO 205 colon
  GI50: 26.2 µM
  TGI: > 100 µM
K-562 leukemia
  GI50: 13.8 µM
  TGI: > 100 µM
RPMI-8226 leukemia
  GI50: 18.6 µM
  TGI: 76.7 µM
SF-295 CNS
  GI50: 13.4 µM
  TGI: 60.4 µM
U251 CNS
  GI50: 7.84 µM
  TGI: 47.7 µM
HCT-15 colon
  GI50: 14.4 µM
  TGI: 39.5 µM
SNB-19 CNS
  GI50: 16.2 µM
  TGI: 51.6 µM
OVCAR-3 ovarian
  GI50: 40.5 µM
  TGI: > 100 µM
HOP-92 NSCLC
  GI50: 26.6 µM
  TGI: 69.7 µM
T-47D breast
  GI50: 13 µM
  TGI: 37.9 µM
NCI-H522 lung
  GI50: 17.8 µM
  TGI: 64 µM
CCRF-CEM leukemia
  GI50: 10.8 µM
  TGI: > 100 µM
CAKI-1 renal
  GI50: 3.68 µM
  TGI: 9.05 µM
A549 NSCLC
  GI50: 18.2 µM
  TGI: 56.7 µM
RXF 393 renal
  GI50: 13.4 µM
  TGI: 37 µM
HL-60(TB) leukemia
  GI50: 24.7 µM
  TGI: > 100 µM
SN12C renal
  GI50: 7.38 µM
  TGI: 29.4 µM
A498 renal
  GI50: 23.4 µM
  TGI: 49.8 µM
UO-31 renal
  GI50: 25.9 µM
  TGI: > 100 µM
SK-MEL-5 melanoma
  GI50: 16.5 µM
  TGI: 45.7 µM
PC-3 prostate
  GI50: 33.1 µM
  TGI: > 100 µM
NCI-H226 lung
  GI50: 7.38 µM
  TGI: 23.6 µM
EKVX NSCLC
  GI50: 3.79 µM
  TGI: 25.2 µM

## COc1ccc(N2Cc3cnc(Nc4ccccc4)nc3N([C@@H]3CC[C@@H](O)C3)C2=O)cc1
MDA-MB-231 breast
  GI50: 5.18 µM
  TGI: > 22.3 µM
NCI-H23 lung
  GI50: 8.17 µM
  TGI: > 25 µM
NCI/ADR-RES ovarian
  GI50: 6.9 µM
  TGI: > 25 µM
OVCAR-5 ovarian
  GI50: 5.54 µM
  TGI: > 25 µM
SF-268 CNS
  GI50: 5.05 µM
  TGI: > 25 µM
SR leukemia
  GI50: 3.12 µM
  TGI: > 16.6 µM
OVCAR-4 ovarian
  GI50: 2.43 µM
  TGI: > 25 µM
UACC-257 melanoma
  GI50: 7.36 µM
  TGI: > 25 µM
KM12 colon
  GI50: 3.54 µM
  TGI: > 25 µM
SK-MEL-2 melanoma
  GI50: 5.21 µM
  TGI: 17.5 µM
HOP-62 NSCLC
  GI50: 8.87 µM
  TGI: > 25 µM
NCI-H460 lung
  GI50: 3.41 µM
  TGI: > 25 µM
ACHN renal
  GI50: 0.984 µM
  TGI: > 25 µM
LOX IMVI melanoma
  GI50: 1.14 µM
  TGI: 5.17 µM
DU-145 prostate
  GI50: 5.59 µM
  TGI: > 25 µM
SW-620 colon
  GI50: 3.81 µM
  TGI: > 18.2 µM
SK-OV-3 ovarian
  GI50: 3.69 µM
  TGI: > 25 µM
786-0 renal
  GI50: 3.08 µM
  TGI: > 25 µM
SK-MEL-28 melanoma
  GI50: 8.19 µM
  TGI: > 25 µM
MCF7 breast
  GI50: 16.5 µM
  TGI: > 25 µM
HS 578T breast
  GI50: 0.671 µM
  TGI: 6.2 µM
IGROV1 ovarian
  GI50: 2.46 µM
  TGI: > 18.5 µM
OVCAR-8 ovarian
  GI50: 4.86 µM
  TGI: > 25 µM
MALME-3M melanoma
  GI50: 6.89 µM
  TGI: > 25 µM
M14 melanoma
  GI50: 3.7 µM
  TGI: > 25 µM
MDA-MB-435
  GI50: 5.98 µM
  TGI: > 25 µM
HCT-116 colon
  GI50: 2.84 µM
  TGI: > 25 µM
BT-549 breast
  GI50: 5.27 µM
  TGI: > 25 µM
SNB-75 CNS
  GI50: 0.377 µM
  TGI: 3.58 µM
MOLT-4 leukemia
  GI50: 2.61 µM
  TGI: > 17.8 µM
TK-10 renal
  GI50: 1.54 µM
  TGI: 12.9 µM
COLO 205 colon
  GI50: 2.76 µM
  TGI: > 25 µM
K-562 leukemia
  GI50: 5.67 µM
  TGI: > 25 µM
RPMI-8226 leukemia
  GI50: 5.72 µM
  TGI: > 25 µM
SF-295 CNS
  GI50: 17.6 µM
  TGI: > 25 µM
U251 CNS
  GI50: 1.01 µM
  TGI: > 25 µM
HCT-15 colon
  GI50: 1.66 µM
  TGI: > 25 µM
SNB-19 CNS
  GI50: 11.9 µM
  TGI: > 25 µM
SF-539 CNS
  GI50: 0.652 µM
  TGI: 5.41 µM
OVCAR-3 ovarian
  GI50: 10.9 µM
  TGI: > 25 µM
HOP-92 NSCLC
  GI50: 1.16 µM
  TGI: 10.7 µM
T-47D breast
  GI50: 11.9 µM
  TGI: > 25 µM
NCI-H522 lung
  GI50: 2.93 µM
  TGI: > 18.8 µM
CCRF-CEM leukemia
  GI50: 5.98 µM
  TGI: > 25 µM
CAKI-1 renal
  GI50: 1.36 µM
  TGI: > 9.74 µM
A549 NSCLC
  GI50: 5.16 µM
  TGI: > 25 µM
RXF 393 renal
  GI50: 0.399 µM
  TGI: 3.18 µM
HL-60(TB) leukemia
  GI50: 4.45 µM
  TGI: > 20.7 µM
HCC-2998 colon
  GI50: 18.8 µM
  TGI: > 25 µM
SN12C renal
  GI50: 1.31 µM
  TGI: > 25 µM
A498 renal
  GI50: 0.128 µM
  TGI: 1.2 µM
UO-31 renal
  GI50: 0.869 µM
  TGI: > 16.5 µM
SK-MEL-5 melanoma
  GI50: 9.25 µM
  TGI: > 25 µM
PC-3 prostate
  GI50: 6.93 µM
  TGI: > 25 µM
NCI-H226 lung
  GI50: 0.523 µM
  TGI: > 25 µM
UACC-62 melanoma
  GI50: 2.74 µM
  TGI: > 25 µM
HT29 colon
  GI50: 3.57 µM
  TGI: > 25 µM
